Experiments:
Assay type in all cases: in vivo, rat
[1] = test system: Spontaneous hypertensive rats (SHRs); assay: Blood pressure after one single oral administration in SHRs; details: M: SHR
From the text: (§2) Spontaneous hypertensive rats (SHRs) and Wistar-Kyoto strains of normotensive rats (WKYs) are chosen to be experiment animals, wherein the SHRs would spontaneously suffer from the hypertension when they grow to 5˜6 weeks old. Herein, 8-week old SHRs are used for carrying out the experiments, and these 8-week old SHRs and WKYs are pre-fed with chew diet and water for 5 weeks before starting the experiments. […] The rats in the 9 groups are fed with the main feeding stuffs (i.e., chew diet and water) during first week to 13-th week. Moreover, the rats in the 9 groups are fed with the main feeding stuffs as well as the extract feeding stuffs at 14-th week in order to accomplish one single oral administration experiments; therefore, the rats in the 9 groups are continuously fed with the main feeding stuffs as well as the extract feeding stuffs starting from 14-th week and continuing for 8 weeks, so as to carry out one chronic administration experiment.
According to the body surface area (BSA) equation provided by Food and Drug Administration (FDA), the BSA of a standard person with the body height of 170 cm and the body weight of 65 kg can be calculated through the mathematical calculation formula of BSA (m^2)=0.003207{H^0.3×W^[0.07285−(0.0188×LOG (w))]}, wherein the BSA value obtained from aforesaid calculation formula for the standard person is 1.762 m^2. On the other hand, the BSA value for the SHRs can also be calculated through the mathematical calculation formula of BSA (m^2) (8.99 W^0.6899)/100, and the BSA value is 0.049 m^2. Moreover, because the experiments use “2.2 g” as a standard feeding dosage, the “1-fold” in Table 6 can be calculated to 176 mgkg^−1day^−1 according to BSA value of the SHRs. Herein, it needs to further explain that, M group is taken as a positive control group because amlodipine is a well-known blood pressure lowering substance. In the experiments, the lowest effective dosage (i.e., 1-fold dosage) for amlodipine is defined to 0.4 mgkg^−1day^−1.

[2] = test system: Spontaneous hypertensive rats (SHRs); assay: Blood pressure in 8-week chronic administration experiment in SHRs; details: M: SHR
From the text: as §2
Moreover, because the experiments use “2.2 g” as a standard feeding dosage, the “1-fold” in Table 6 can be calculated to 176 mgkg^−1day^−1 according to BSA value of the SHRs. Herein, it needs to further explain that, M group is taken as a positive control group because amlodipine is a well-known blood pressure lowering substance. In the experiments, the lowest effective dosage (i.e., 1-fold dosage) for amlodipine is defined to 0.4 mgkg^−1day^−1.

[3] = test system: Spontaneous hypertensive rats (SHRs); assay: Blood lipids of SHRs; details: M: SHR, amlodipine 0.4 mgkg-1day-1
From the text: (§1) Spontaneous hypertensive rats (SHRs) and Wistar-Kyoto strains of normotensive rats (WKYs) are chosen to be experiment animals, wherein the SHRs would spontaneously suffer from the hypertension when they grow to 5˜6 weeks old. Herein, 8-week old SHRs are used for carrying out the experiments, and these 8-week old SHRs and WKYs are pre-fed with chew diet and water for 5 weeks before starting the experiments. Herein, it needs to further explain that, the experiment groups listed in Table 6 are divided to 9 groups. The rats in the 9 groups are fed with the main feeding stuffs (i.e., chew diet and water) during first week to 13-th week. Moreover, the rats in the 9 groups are fed with the main feeding stuffs as well as the extract feeding stuffs at 14-th week in order to accomplish one single oral administration experiments; therefore, the rats in the 9 groups are continuously fed with the main feeding stuffs as well as the extract feeding stuffs starting from 14-th week and continuing for 8 weeks, so as to carry out one chronic administration experiment.

[4] = test system: Spontaneous hypertensive rats (SHRs); assay: Heart rate of SHRs; details: M: SHR, amlodipine 0.4 mgkg-1day-1
From the text: as §1, with “experiment. The designed experiment groups consist of:” for “experiment.”
Continuously, please refer to following Table 10, which record the heart rate data of SHRs and WKYs in the experiment groups listed in Table 6. From Table 10, it can find that the heart rate of SHRs in 1R, 5R, 1RM, and 5RM groups are normal comparing to the heart rate of SHRs in C group. Moreover, the heart rate of SHRs in W1R and W5R groups are normal comparing to the heart rate of WKYs in WC group.

[5] = test system: Spontaneous hypertensive rats (SHRs); assay: Liver function indexes of SHRs; details: M: SHR, amlodipine 0.4 mgkg-1day-1
From the text: as §1, with “experiment. The designed experiment groups consist of:” for “experiment.”
With reference to following Table 11, which record the liver function indexes data of SHRs and WKYs in the experiment groups listed in Table 6. […] Wherein the liver function indexes data include: aspartate aminotransferase (AST), alanine aminotransferase (ALT), alkaline phosphatase, albumin, globulin, γ-Glutamyltransferase (γ-GT), total protein, and A/G ratio.

[6] = test system: Spontaneous hypertensive rats (SHRs); assay: Kidney function, electrolytes and creatine phosphokinase indexes of SHRs; details: M: SHR, amlodipine 0.4 mgkg-1day-1
From the text: as §1, with “experiment. The designed experiment groups consist of:” for “experiment.”
Continuously, please refer to following Table 12, which record the data of kidney function indexes, electrolytes indexes and creatine phosphokinase indexes of SHRs and WKYs in the experiment groups listed in Table 6. From Table 12, it can find that the kidney function indexes, the electrolytes indexes and the creatine phosphokinase indexes of SHRs in 1R, 5R, 1RM, and 5RM groups are normal comparing to the kidney function indexes, the electrolytes indexes and the creatine phosphokinase indexes of SHRs in C group. Moreover, the kidney function indexes, the electrolytes indexes and the creatine phosphokinase indexes of SHRs in W1R and W5R groups are normal comparing to the kidney function indexes, the electrolytes indexes and the creatine phosphokinase indexes of WKYs in WC group. Wherein the kidney function indexes include blood urea nitrogen (BUN), creatinine and uric acid, and the electrolytes indexes include sodium and potassium. […] It is well know that, when the kidney is at a kidney failure situation, the concentration of creatinine and uric acid in blood serum would increase. […] It is well know that, when the muscle is subject to damage, the concentration of CPK in blood serum would increase.

[7] = amlodipine 0.4 mgkg-1day-1, 0 hr
[8] = amlodipine 0.4 mgkg-1day-1, 4 hr
[9] = amlodipine 0.4 mgkg-1day-1, 8 hr
[10] = amlodipine 0.4 mgkg-1day-1, 24 hr
[11] = amlodipine 0.4 mgkg-1day-1, 0 week
[12] = amlodipine 0.4 mgkg-1day-1, 2 week
[13] = amlodipine 0.4 mgkg-1day-1, 4 week
[14] = amlodipine 0.4 mgkg-1day-1, 6 week
[15] = amlodipine 0.4 mgkg-1day-1, 8 week

Q: How did the DBP [1, 7] turn out when CCOC(=O)C1=C(COCCN)NC(C)=C(C(=O)OC)C1c1ccccc1Cl (centres unmarked) [amlodipine] was run?
A: Its DBP is 143 ± 2.9 mmHg.

Q: What about the SBP [1, 7] of the same compound?
A: Its SBP is 180 ± 3.6 mmHg.

Q: And the DBP [1, 8]?
A: The DBP was 143 ± 3.8 mmHg.

Q: What about the SBP [1, 8] of the same compound?
A: The SBP was 178 ± 5.4 mmHg.

Q: And the DBP [1, 9]?
A: Its DBP is 134 ± 4.9 mmHg.

Q: What about the SBP [1, 9] of the same compound?
A: The SBP was 171 ± 3.1 mmHg.

Q: What about the DBP [1, 10] of the same compound?
A: Its DBP is 137 ± 4.2 mmHg.

Q: What about the SBP [1, 10] of the same compound?
A: The SBP was 175 ± 7.6 mmHg.

Q: What about the DBP [2, 11] of the same compound?
A: Its DBP is 143 ± 2.9 mmHg.

Q: What about the SBP [2, 11] of the same compound?
A: The SBP was 180 ± 3.6 mmHg.

Q: And the DBP [2, 12]?
A: The DBP was 145 ± 3.6 mmHg.

Q: What about the SBP [2, 12] of the same compound?
A: The SBP was 178 ± 5.4 mmHg.

Q: What about the DBP [2, 13] of the same compound?
A: The DBP was 140 ± 3.8 mmHg.

Q: What about the SBP [2, 13] of the same compound?
A: Its SBP is 171 ± 3.1 mmHg.

Q: What about the DBP [2, 14] of the same compound?
A: The DBP was 139 ± 1.9 mmHg.

Q: What about the SBP [2, 14] of the same compound?
A: Its SBP is 175 ± 7.6 mmHg.

Q: What about the DBP [2, 15] of the same compound?
A: The DBP was 135 ± 2.7 mmHg.

Q: What about the SBP [2, 15] of the same compound?
A: The SBP was 175 ± 7.6 mmHg.

Q: And the Cholesterol [3]?
A: Its Cholesterol is 79.8 ± 3.6 mg/dL.

Q: And the Cholesterol/HDL-C [3]?
A: Its Cholesterol/HDL-C is 1.3 ± 0.1.

Q: And the HDL-C [3]?
A: The HDL-C was 60.3 ± 1.9 mg/dL.

Q: And the LDL-C [3]?
A: Its LDL-C is 10.0 ± 0.7 mg/dL.

Q: And the Triacylglycerol [3]?
A: The Triacylglycerol was 69.3 ± 6.8 mg/dL.

Q: What about the Heart rate ([4]; 0 hr) of the same compound?
A: Its Heart rate is 402 ± 6.9 bpm.

Q: And the Heart rate ([4]; 2 week)?
A: The Heart rate was 402 ± 6.7 bpm.

Q: What about the Heart rate ([4]; 4 week) of the same compound?
A: Its Heart rate is 404 ± 4.8 bpm.

Q: What about the Heart rate ([4]; 6 week) of the same compound?
A: The Heart rate was 403 ± 6.1 bpm.

Q: What about the Heart rate ([4]; 8 week) of the same compound?
A: Its Heart rate is 402 ± 3.0 bpm.

Q: What about the Heart rate ([4]; 4 hr) of the same compound?
A: Its Heart rate is 401 ± 6.5 bpm.

Q: What about the Heart rate ([4]; 8 hr) of the same compound?
A: The Heart rate was 400 ± 4.8 bpm.

Q: And the Heart rate ([4]; 24 hr)?
A: Its Heart rate is 402 ± 4.9 bpm.

Q: What about the A/G ratio [5] of the same compound?
A: The A/G ratio was 2.1 ± 0.4.

Q: And the ALT [5]?
A: The ALT was 85.7 ± 6.1 U/L.

Q: And the AST [5]?
A: The AST was 125.8 ± 4.6 U/L.

Q: And the Albumin [5]?
A: The Albumin was 5.4 ± 0.2 g/dL.

Q: And the Alkaline phosphatase [5]?
A: The Alkaline phosphatase was 143.3 ± 7.6 IU/L.

Q: And the Globulin [5]?
A: Its Globulin is 2.6 ± 0.1 g/dL.

Q: And the Total protein [5]?
A: Its Total protein is 8.2 ± 0.1 g/dL.

Q: And the BUN [6]?
A: The BUN was 23.7 ± 0.8 mg/dL.

Q: What about the Creatinine [6] of the same compound?
A: Its Creatinine is 0.48 ± 0.1 mg/dL.

Q: What about the Creatinine phosphokinase [6] of the same compound?
A: Its Creatinine phosphokinase is 287.0 ± 12.2 U/L.

Q: What about the Potassium [6] of the same compound?
A: Its Potassium is 8.8 ± 0.4 meq/L.

Q: And the Sodium [6]?
A: The Sodium was 152.4 ± 0.9 meq/L.

Q: And the Uric acid [6]?
A: The Uric acid was 5.8 ± 0.6 mg/dL.
